Reference: US8747912B2, “Drug delivery system” (Isis Innovation Limited, priority 2000, dated 2014)

Assay: Release of the drugs from their intercalation compounds in phosphate buffer solution at 37° C.
Format: physicochemical
Settings: stirred at 1000 rpm, intercalate in [LiAl2(OH)6]Cl.H2O, UV of filtrate
Experimental: Release of the drugs from their intercalation compounds was performed in each case by the addition of 0.0250 g-0.100 g of the intercalation compound to 250 mL phosphate buffer solution at 37° C. […] The release in phosphate buffer at pH 7 and at pH 4 was investigated. Aliquots were removed from the flask at regular time intervals, the solution was filtered and the UV spectrum of the filtrate recorded in a […] quartz cuvette. A baseline scan using the neat solution was recorded prior to the collection of the first spectrum of the filtrate.

release of the drug from its intercalation compound (phosphate buffer pH 4, 37° C.)	release of the drug from its intercalation compound (phosphate buffer pH 7, 37° C.)	Compound
rapid	slower and more controlled	O=C(O)Cc1ccc(-c2ccccc2)cc1 [4-biphenylacetic acid]
rapid	slower and more controlled	O=C([O-])Cc1ccccc1Nc1c(Cl)cccc1Cl.[Na+] [Diclofenac, sodium (2-(2,6-dichloroanilino)phenyl)acetate]
rapid	slower and more controlled	COc1ccc2cc([C@H](C)C(=O)O)ccc2c1 [Naproxen, (+)-2-(6-methoxy-2-naphthyl)propionic acid]
